ChEMBL document CHEMBL1149407, “Angelmarin, a novel anti-cancer agent able to eliminate the tolerance of cancer cells to nutrient starvation” (2006)
Calls of active or inactive are those of the source. No cut-off for these calls is given here.

What was measured:
[1] = test system: PANC-1; experiment: Cytotoxicity in pancreatic PANC1 cancer cells at 100 ug/ml in nutrient-rich condition; type: functional, cell-based; conditions: Homo sapiens
[2] = test system: PANC-1; experiment: Cytotoxicity in pancreatic PANC1 cancer cells at 100 ug/ml in nutrient-deprived condition; type: functional, cell-based; conditions: Homo sapiens
[3] = test system: PANC-1; experiment: Cytotoxicity in pancreatic PANC1 cancer cells at 0.01 ug/ml within 24 hours of nutrient deprivation; type: functional, Homo sapiens
[4] = test system: PANC-1; experiment: Cytotoxicity in pancreatic PANC1 cancer cells at 10 ug/ml within 6 hours of nutrient deprivation; type: functional, Homo sapiens

| Structure (SMILES) | Activity [1] | Activity [2] | Activity [3] | Activity [4] |
| --- | --- | --- | --- | --- |
| CC(C)(O)[C@@H]1Cc2c(ccc3ccc(=O)oc23)O1 | inactive | inactive |  |  |
| CC(C)(OC(=O)/C=C/c1ccc(O)cc1)[C@@H]1Cc2c(ccc3ccc(=O)oc23)O1 [ANGELMARIN] |  |  | 100% | 100% |
